Results reported in US6723830B2, “Short peptides which selectively modulate the activity of protein kinases” (Children's Medical Center Corporation, priority 1998, dated 2004).
* marks the point of attachment. Myristoyl = CCCCCCCCCCCCCC(=O)*

Columns and labels:
[1] = test system: Human prostate cancer cells (PC3); assay: Proliferation of human prostate cancer cells PC3 (methylene blue cell count); type: cell-based; details: concentration at which significant inhibition of cell proliferation was observed; 72-80 hours incubation
Experimental: (§1) Human endothelial cells (referred to herein as “HEC cells”) are the cell line described by Schweitzer et al., Laboratory Investigation 76(1):25 (1997). Human prostate cancer cells (PC3) were obtained by the procedures disclosed in Arbiser et al., Proc. Natl. Acad. Sci. 94:861 (1997), the teachings of which are incorporated herein by reference.
(§2) 96 well, flat bottom, tissue culture microtiter plates were pre-coated with gelatin (Difco) immediately prior to cell plating by adding 0.100 ml/well of freshly filtered 1% gelatin in glass double distilled water (DDW). The wells were incubated for about 1 hour at 37° C., and then the excess solution was removed by aspiration.
(§3) Culture medium was prepared from DMEM, penicillin/streptomycin/glutamine (penicillin—100 U/ml; streptomycin—100 μμg/mL; and glutamine—2 mM) and 10% endotoxin free bovine calf serum (Hyclone). A suspension of the cell type being tested at 25×10^3 cells/ml was prepared in the above described culture medium and distributed 0.160 ml/well (about 4000 endothelial cells/well).
(§4) A series of αD peptide stock solutions was prepared by diluting a 10 mM solution of the αD peptide in 100% DMSO with phosphate buffered saline (PBS) containing 0.1% BSA. […]
(§5) The wells were washed one time with borate buffer (0.1 M, pH 8.5). […] After extracting overnight, the O.D. was read at 630 nm to determine the number of cells per well. […]

[2] = test system: Human endothelial cells (HEC cells); assay: Proliferation of human endothelial cells (methylene blue cell count); type: cell-based; details: concentration at which significant inhibition of cell proliferation was observed; 72-80 hours incubation
Experimental: as §1, §2, §3, §4, §5

CD4+ T cells = assay: Th1/Th2 bioassay: IL-4 and IFNγ secretion by ELISA; type: cell-based, Balb/c mice; details: CD4+ T cells incubated 5 days with 0.4, 2 or 10 μM peptide; 24 hour re-stimulation; FIG. 6
Experimental: 0.5×10^6 small resting CD4+ T cells were isolated from lymph nodes of 8 week-old Balb/c mice. These CD4+ T cells were incubated for 5 days in 2 ml culture medium in 24 well plates coated with anti-CD3 and anti-CD28 antibodies: (5 μg/ml and 2 μg/ml, respectively). 0.4, 2 or 10 μM Jak-derived peptides, initially in 10 μl DMSO, were present in the medium during the 5 day activation period. Control wells contained 10 μl of DMSO (the solvent of the peptide).
At the end of the 5 day stimulation period, the medium was replaced with fresh medium containing 10 u/ml IL-2 and the cells were removed from the antibody-coated wells to uncoated wells for a 3 day “rest” and expansion period. Under these stimulating and rest conditions, the differentiation process led to the acquisition of Th2 phenotype (high IL-4 and low IFNγ production upon secondary challenge).
At the end of the rest period, the cells were removed, washed and counted. 0.5×10^6 cells were re-stimulated in 1 ml of culture medium by incubation for 24 hours on anti-CD3-+anti-CD28-coated 24 well plates. At the end of the 24 hour re-stimulation period, the supernatant was removed and the level of secreted IL-4 and IFNγ was determined by ELISA. The results were expressed as u/ml or pg/ml of IL-4 and IFNγ respectively, which were secreted into the culture medium by 0.5×10^6 cells during the re-stimulation period.

B16 melanoma cells = assay: Induction of melanogenesis in B16 melanoma cells, observed by eye; type: cell-based, mouse; details: 5 days incubation; increase in black pigment seen by eye; FIG. 7
Experimental: B16 melanoma cells (a mouse tumor cell line) were cultured in a 24-well plate, 10^5 cells/well, in the presence of various concentrations of K085D102, a Jak2-derived peptide from the αD region. After 5 days incubation in DMEM+10% fetal calf serum under standard conditions, the plate was observed by eye for melanogenesis. Melanogenesis induction was visualized by an increase in the amount of the black pigment in the well. The results are illustrated in FIG. 7 and clearly show a dose response down to a concentration as low as 0.15 μM of the Jak2 peptide of the αD region present in the well.

[3] = Appetite suppression: food intake and body weight in mice; type: in vivo; details: C57BL mice
Experimental: Male CB6F1 or C57BL mice (Harlan), about 2-4 months old, were fed a pelleted rodent maintenance diet (Koffolk, Tel Aviv, Israel, 19520). The food containers for each group were weighed daily and the average food consumption was calculated per mouse per day.
During the experimental period, the mice were injected intraperitoneally once a day for two consecutive days, 4 mg/mouse, with K085D102 (a Jak2-derived peptide from the αD region) solubilized in 10% DMSO in PBS+0.1% BSA in a volume of 0.2 ml. The control groups were injected with 0.2 ml of the vehicle only.
FIGS. 4 and 5 illustrate the results obtained with CB6F1 mice while Table II summarizes the results obtained with C57BL mice.

fresh adipocytes = assay: Glucose uptake (3H-deoxy glucose) by adipose tissue cells; type: cell-based, rats; details: 10 μM peptide
Experimental: To 3 ml of buffer with 10 mg collagenase, 3 g epididymal fat pad (from 2-3 male rats) was introduced. The fat was cut up with scissors. The pieces of fat were swirled and shaken in a 37° C. water bath set at 100-150 repetitions/minute for approximately 1 hour with swirling every 15 minutes while digesting and every 5 minutes towards the end. About 6 ml of buffer was added to the vial.
A 250μ nylon mesh over the top was secured with a rubber band and the contents of the container were gently squeezed into a 50 ml plastic tube. The total volume for each wash was 15 ml.
The tube was centrifuged. The adipose cells floated to the top of the liquid. The buffer was removed using a 35 ml metal-tipped syringe with a needle. Buffer was added to 15 ml and the clumps of cells were gently broken up by mixing up and down in the syringe. This process was repeated for a total of 4 centrifugations at 1000 with the last centrifugation at 2000 rpm. At this point, any fat was removed from the top of the cells.
Buffer and dilute cell suspension with buffer were removed to cytocrit of 5-10%. The cells were kept at 37° C. for 1 hour.
500 μl buffer was added with or without additives (insulin 10-10,000 μU/ml, peptides 0.1-10 μM) to 10 ml plastic tubes.
500 μl aliquots of the cell suspension were added to the tubes.
After incubation for 30 minutes at 37° C. in a shaking water bath (approximately 300 strokes/minute), 200 μl of buffer containing 3H—Deoxy Glucose (approx. 1200 cpm/μl) was added to each tube.
After 30 minutes incubation with 3H-DOG at 37° C., 200 μl aliquots were transferred to microcentrifuge tubes containing 200 μl Dinonyl phthalate. Cells were rapidly separated from the aqueous buffer by centrifugation at 10,000 g for 30-60 sec. Cells separated in the top layer from the aqueous buffer by Dinonyl phthalate.
Cell associated radioactivity was counted in a liquid scintillation counter.
Glucose-uptake was measured in fresh adipocytes, incubated with or without insulin (10 μU) as described above, in the absence (control) or the presence of 10 μM of peptide K094D101 (derived from the αD region of IRK).

[4] = 4 mg/mouse intraperitoneally once a day for two consecutive days, treatment day 1
[5] = 4 mg/mouse intraperitoneally once a day for two consecutive days, treatment day 2
[6] = recovery after two days of treatment

For “K086D101: Jak3 αD region peptide, SEQ ID NO:145 (GMEYLPSGSLRDFLQRHRAL), N-myristylated, C-amidated (Myristoyl-GMEYLPSGSLRDFLQRHRAL-NH2; SMILES CCCCCCCCCCCCCC(=O)NCC(=O)N[C@@H](CCSC)C(=O)N[C@@H](CCC(=O)O)C(=O)N[C@@H](Cc1ccc(O)cc1)C(=O)N[C@@H](CC(C)C)C(=O)N1CCC[C@H]1C(=O)N[C@@H](CO)C(=O)NCC(=O)N[C@@H](CO)C(=O)N[C@@H](CC(C)C)C(=O)N[C@@H](CCCNC(=N)N)C(=O)N[C@@H](CC(=O)O)C(=O)N[C@@H](Cc1ccccc1)C(=O)N[C@@H](CC(C)C)C(=O)N[C@@H](CCC(N)=O)C(=O)N[C@@H](CCCNC(=N)N)C(=O)N[C@@H](Cc1c[nH]cn1)C(=O)N[C@@H](CCCNC(=N)N)C(=O)N[C@@H](C)C(=O)N[C@@H](CC(C)C)C(N)=O)”, the “S.I.* (μM) for PC3 Cells” value [1] was 0.6 µM and the “S.I.* (μM) for HEC Cells” value [2] was 0.6 µM.
With “K086D102: Jak3 peptide derived from the αD region, SEQ ID NO:146 (GMEYLPSGSLRDFLQRHRARL), N-myristylated, C-amidated (Myristoyl-GMEYLPSGSLRDFLQRHRARL-NH2; SMILES CCCCCCCCCCCCCC(=O)NCC(=O)N[C@@H](CCSC)C(=O)N[C@@H](CCC(=O)O)C(=O)N[C@@H](Cc1ccc(O)cc1)C(=O)N[C@@H](CC(C)C)C(=O)N1CCC[C@H]1C(=O)N[C@@H](CO)C(=O)NCC(=O)N[C@@H](CO)C(=O)N[C@@H](CC(C)C)C(=O)N[C@@H](CCCNC(=N)N)C(=O)N[C@@H](CC(=O)O)C(=O)N[C@@H](Cc1ccccc1)C(=O)N[C@@H](CC(C)C)C(=O)N[C@@H](CCC(N)=O)C(=O)N[C@@H](CCCNC(=N)N)C(=O)N[C@@H](Cc1c[nH]cn1)C(=O)N[C@@H](CCCNC(=N)N)C(=O)N[C@@H](C)C(=O)N[C@@H](CCCNC(=N)N)C(=O)N[C@@H](CC(C)C)C(N)=O)” the “IFNγ production (Th1 conversion)” value (CD4+ T cells) was “increase” and the “IL-4 production (Th1 conversion)” value (CD4+ T cells) was “decrease”.
In the case of “K085D102: a Jak2-derived peptide from the αD region, SEQ ID NO:143 (GLRDYLQKHKERI), N-myristylated, C-amidated (Myristoyl-GLRDYLQKHKERI-NH2; SMILES CCCCCCCCCCCCCC(=O)NCC(=O)N[C@@H](CC(C)C)C(=O)N[C@@H](CCCNC(=N)N)C(=O)N[C@@H](CC(=O)O)C(=O)N[C@@H](Cc1ccc(O)cc1)C(=O)N[C@@H](CC(C)C)C(=O)N[C@@H](CCC(N)=O)C(=O)N[C@@H](CCCCN)C(=O)N[C@@H](Cc1c[nH]cn1)C(=O)N[C@@H](CCCCN)C(=O)N[C@@H](CCC(=O)O)C(=O)N[C@@H](CCCNC(=N)N)C(=O)N[C@H](C(N)=O)[C@@H](C)CC)”, the “Melanogenesis induction: lowest concentration showing dose response” value (B16 melanoma cells) is reported as 0.15 µM, the “% change in body wt. (relative to day 0), treatment day 1” value [3, 4] is reported as 94% and the “Food Intake (g/mouse/day), treatment day 1” value [3, 4] is reported as 0.24 g/mouse/day. For the same substance, the “% change in body wt. (relative to day 0), treatment day 2” value [3, 5] was 95%, the “Food Intake (g/mouse/day), treatment day 2” value [3, 5] was 1.43 g/mouse/day and the “Food Intake (g/mouse/day), baseline” value ([3]; baseline before treatment) was 3.16 g/mouse/day. For the same substance, the “% change in body wt. (relative to day 0), day 0” value ([3]; day 0 (reference)) was 100%, the “% change in body wt. (relative to day 0), recovery” value [3, 6] was 97% and the “Food Intake (g/mouse/day), recovery” value [3, 6] was 3.62 g/mouse/day.
For “K094D101: peptide derived from the αD region of IRK; SEQ ID NO:137 by list order, possibly SEQ ID NO:136 (myristylated) (Myristoyl-AQNNPGRPPPTL-NH2; SMILES CCCCCCCCCCCCCC(=O)N[C@@H](C)C(=O)N[C@@H](CCC(N)=O)C(=O)N[C@@H](CC(N)=O)C(=O)N[C@@H](CC(N)=O)C(=O)N1CCC[C@H]1C(=O)NCC(=O)N[C@@H](CCCNC(=N)N)C(=O)N1CCC[C@H]1C(=O)N1CCC[C@H]1C(=O)N1CCC[C@H]1C(=O)N[C@H](C(=O)N[C@@H](CC(C)C)C(N)=O)[C@@H](C)O)”, the “Glucose uptake, % of Control, +Insulin 10 μU/ml” value (fresh adipocytes; insulin 10 μU/ml) was 67&, the “Glucose-Update: Mean DPM ± SEM of Quadruplicates, +Insulin 10 μU/ml” value (fresh adipocytes; insulin 10 μU/ml) was 1,210 ± 110 DPM and the “Glucose uptake, % of Control, −Insulin” value (fresh adipocytes; without insulin) was 67%. For the same substance, the “Glucose-Update: Mean DPM ± SEM of Quadruplicates, −Insulin” value (fresh adipocytes; without insulin) was 775 ± 72 DPM.
